The test system of one data set is DENV-1 strain TC974#666. The experiment in a line: Tetravalent RT-qPCR assay Protocol A, serotype 1. It is filed as cell-based. The note with it: Dengue virus, DENV1, 72 h, RT-qPCR serotype 1 TC974#666, Vero cells, day 3. The method, then: (§1) The antiviral activity of the compounds of the invention was tested against DENV-1 strain TC974#666 (NCPV; Table 6), DENV-2 strain 16681 (Table 7), DENV-3 strain H87 (NCPV; Table 8) and DENV-4 strains H241 (NCPV; Table 9A) and SG/06K2270DK1/2005 (Eden; Table 9B) in a RT-qPCR assay. Therefore, Vero cells were infected with either DENV-1, or -2, or -3, or -4 in the presence or absence of test compounds. At day 3 post-infection, the cells were lysed and cell lysates were used to prepare cDNA of both a viral target (the 3′UTR of DENV; Table 2) and a cellular reference gene (β-actin, Table 2). Subsequently, a duplex real time PCR was performed on a Lightcycler480 instrument. The generated Cp value is inversely proportional to the amount of RNA expression of these targets. Inhibition of DENV replication by test compound results in a shift of Cp's for the 3′UTR gene. On the other hand, if a test compound is toxic to the cells, a similar effect on β-actin expression will be observed. The comparative ΔΔCp method is used to calculate EC50, which is based on the relative gene expression of the target gene (3′UTR) normalized with the cellular housekeeping gene (β-actin).
(§2) The culture medium consisted of minimal essential medium supplemented with 2% of heat-inactivated fetal calf serum, 0.04% gentamycin (50 mg/mL) and 2 mM of L-glutamine. Vero cells, obtained from ECACC, were suspended in culture medium and 75 μL/well was added in 96-well plates (10000 cells/well), which already contain the antiviral compounds. […] In addition, each plate contains wells which are assigned as virus controls (containing cells and virus in the absence of compound) and cell controls (containing cells in the absence of virus and compound). Once the cells were added in the plates, the plates were incubated in a fully humidified incubator (37° C., 5% CO2) until the next day. Dengue viruses serotype-1, 2, 3 and 4 were diluted in order to obtain a Cp of ˜22-24 in the assay. Therefore, 25 μL of virus suspension was added to all the wells containing test compound and to the wells assigned as virus control. In parallel, 25 μL of culture medium was added to the cell controls. Next, the plates were incubated for 3 days in a fully humidified incubator (37° C., 5% CO2). After 3 days, the supernatant was removed from the wells and the cells were washed twice with ice-cold PBS (˜100 μL). The cell pellets within the 96-well plates were stored at −80° C. for at least 1 day. Next, RNA was extracted using the Cells-to-CT™ lysis kit, according to the manufacturer's guideline (Life Technologies). The cell lysates can be stored at −80° C. or immediately used in the reverse transcription step.
(§3) In preparation of the reverse transcription step, mix A (table 3A) was prepared and 7.57 μL/well was dispensed in a 96-well plate. After addition of 5 μL of the cell lysates, a five minute denaturation step at 75° C. was performed (table 3B). Afterwards, 7.43 μL of mix B was added (table 3C) and the reverse transcription step was initiated (table 3D) to generate cDNA.
(§4) Finally, a RT-qPCR mix was prepared, mix C (table 4A), and 22.02 μL/well was dispensed in 96-well LightCycler qPCR plates to which 3 μL of cDNA was added and the qPCR was performed according to the conditions in table 4B on a LightCycler 480.
(§5) Using the LightCycler software and an in-house LIMS system, dose response curves for each compound were calculated and the half maximal effective concentration (EC50) and the half maximal cytotoxic concentration (CC50) were determined.
(In general: Real-time PCR tracks product formation cycle by cycle.)

Data set [1] can be described thus: in vitro. The note with it: African green monkey, CC50. The data set is classed as cell-based. The method, then:
as §1, §2, §5

In data set [2] the test system is DENV-4 strain SG/06K2270DK1/2005 (Eden). The experiment in a line: Tetravalent RT-qPCR assay Protocol A, serotype 4 EDEN. To be noted: Dengue virus, DENV4, Vero, 72 h. It is filed as cell-based. The method, then:
as §1, §2, §3, §4, §5

For another data set, the system named is DENV-2 16681 strain. The experiment in a line: DENV-2 antiviral assay (eGFP fluorescence, Vero cells). It is filed as cell-based, Dengue virus. To be noted: DENV-2 16681 eGFP, MOI 0.5, 3 days. The protocol: The antiviral activity of all the compounds of the invention was tested against the DENV-2 16681 strain which was labeled with enhanced green fluorescent protein (eGPF; Table 1). The culture medium consists of minimal essential medium supplemented with 2% of heat-inactivated fetal calf serum, 0.04% gentamycin (50 mg/mL) and 2 mM of L-glutamine. Vero cells, obtained from ECACC, were suspended in culture medium and 25 μL was added to 384-well plates (2500 cells/well), which already contain the antiviral compounds. Typically, these plates contain a 5-fold serial dilution of 9 dilution steps of the test compound at 200 times the final concentration in 100% DMSO (200 nL). […] Finally, each plate contains wells which are assigned as virus controls (containing cells and virus in the absence of compound), cell controls (containing cells in the absence of virus and compound) and medium controls (containing medium in the absence of cells, virus and compounds). To the wells assigned as medium control, 25 μL of culture medium was added instead of Vero cells. Once the cells were added to the plates, the plates were incubated for 30 minutes at room temperature to allow the cells to distribute evenly within the wells. Next, the plates were incubated in a fully humidified incubator (37° C., 5% CO2) until the next day. Then, DENV-2 strain 16681, labeled with eGFP, was added at a multiplicity of infection (MOI) of 0.5. Therefore, 15 μL of virus suspension was added to all the wells containing test compound and to the wells assigned as virus control. In parallel, 15 μL of culture medium was added to the medium and cell controls. Next, the plates were incubated for 3 days in a fully humidified incubator (37° C., 5% CO2). At the day of the read out, the eGFP fluorescence was measured using an automated fluorescence microscope at 488 nm (blue laser). Using an in-house LIMS system, inhibition dose response curves for each compound were calculated and the half maximal effective concentration (EC50) was determined. Therefore, the percent inhibition (I) for every test concentration is calculated using the following formula: I=100*(ST−SCC)/(SVC−SCC); ST, SCC and SVC are the amount of eGFP signal in the test compound, cell control and virus control wells, respectively. The EC50 represents the concentration of a compound at which the virus replication is inhibited with 50%, as measured by a 50% reduction of the eGFP fluorescent intensity compared to the virus control. The EC50 is calculated using linear interpolation.

In a further data set the test system is DENV-3 strain H87. The experiment in a line: Tetravalent RT-qPCR assay Protocol A, serotype 3. The data set is classed as cell-based. To be noted: Dengue virus, DENV3, 72 h, RT-qPCR serotype 3 H87, Vero cells, day 3. The protocol: as §1, §2, §3, §4, §5
Another data set has as its system DENV-2 strain 16681. The data set can be described thus: Tetravalent RT-qPCR assay Protocol A, serotype 2. It is filed as cell-based. The note with it: Dengue virus, DENV2, 72 h; Protocol A, RT-qPCR serotype 2 16681, Vero cells, day 3; read-out: EC50. The protocol:
as §1, §2, §3, §4, §5

The nature of data set [3]: in vitro. To be noted: African green monkey.
For another data set, the system named is DENV-4 strain H241. The data set can be described thus: Tetravalent RT-qPCR assay Protocol A, serotype 4 H241. It is filed as cell-based. To be noted: Dengue virus. The method, then:
as §1, §2, §3, §4, §5

Data set [4] has as its system Vero cells. The experiment in a line: in vitro. It is filed as cell-based. The note with it: African green monkey, 3 days. The protocol:
as §1, §2, §5

In data set [5] the test system is Vero cells. To be noted: African green monkey.

Each structure is given as a SMILES string. Read-outs that look alike come from different tables or passages of the source.

The source of these data is patent US12172959B2, “Mono- or di-substituted indole derivatives as dengue viral replication inhibitors” (priority 2015, dated 2024).

With `COc1cc(NC(C(=O)c2c[nH]c3cc(OC)ccc23)c2ccc(Cl)cc2OC)cc(S(C)(=O)=O)c1` (single isomer, unassigned) [Compound 3A, 2-(4-chloro-2-methoxyphenyl)-1-(6-methoxy-1H-indol-3-yl)-2-((3-methoxy-5-(methylsulfonyl)phenyl)amino)ethanone], the EC50 in the data set on DENV-1 strain TC974#666 was determined as 4.2 nM; in [2] it was 3 nM; with DENV-2 16681 strain it was 0.25 nM; in the data set on DENV-3 strain H87 it was 48 nM; in the data set with DENV-2 strain 16681 it was 0.3 nM; in the data set with DENV-4 strain H241 (DENV4, 72 h, Protocol A, RT-qPCR serotype 4 H241, Vero cells, day 3, read-out: EC50), 110 nM. The compound also showed a CC50 at 3 days in the data set “in vitro [1]” of 5500 nM. The CC50 in the data set “in vitro [3]” is 7200 nM.
For the compound `COc1cc(NC(C(=O)c2c[nH]c3cc(OC)c(OC(F)(F)F)cc23)c2ccc(Cl)cc2OC)cc(S(C)(=O)=O)c1` (single isomer, unassigned) [Compound 10A, 2-(4-chloro-2-methoxyphenyl)-2-((3-methoxy-5-(methylsulfonyl)phenyl)amino)-1-(6-methoxy-5-(trifluoromethoxy)-1H-indol-3-yl)ethanone], the EC50 was 0.27 nM in the data set with DENV-1 strain TC974#666; 0.12 nM in the data set on DENV-2 16681 strain; 3.7 nM with DENV-3 strain H87; 0.057 nM with DENV-2 strain 16681; 11 nM with DENV-4 strain H241 (DENV4, Vero, 72 h). Besides, the CC50 turned out to be 1000 nM with Vero cells [4] and 2600 nM in the data set with Vero cells [5]. For the same compound, the CC50 at 3 days in “in vitro [1]” is 1600 nM.

Broadly, the EC50 is the concentration giving half of the maximal effect.
